Data from patent US20040039052A1, “Urinary incontinence therapy” (priority 1997, published 2004).
Marks after values point to notes of the source that are not given here.

How the values were obtained:
[1] = tested on: patients with MS (detrusor hyperreflexia); assay: separate study: RTX instillation in patients with MS; format: in vivo, human
Method: A separate study was undertaken with administration of 0.1 μM RTX to a group of 6 patients with MS. […] One patient was bedridden with an indwelling catheter. Despite the catheter, occasional bursts of detrusor hyperreflexia caused explosive expulsions of urine such that urine leaked around the catheter. No urinary dynamic measurements were taken but 100 ml of 1 μM solution was administered. […] The remaining four patients were all on crutches or in wheelchairs. They were on scheduled intermittent self-catheterizations and remained so.

[2] = solubility and stability of RTX solutions; format: physicochemical
Method: The molecular weight of RTX is 628.72 for the clinical studies described herein. A 10 μM stock solution, 6.3 μg/mL was prepared by dissolving 6.32 mg of 99.5% pure RTX in 1000 mL absolute ethanol. Solutions for therapeutic use were diluted from the ethanolic stock solution into sterile normal saline (0.9% w/v NaCl) or a saline-ethanol mixture such that the final solution was 10% (v/v) ethanol. Therapeutic efficacy was tested for RTX concentrations of 1 μM, 0.1 μM and 0.05 μM. […] Prior to administration, RTX solutions were sterilized by filtration.
However, the compounds are soluble in ethanol. Pure ethanol cannot be instilled into the bladder because it causes severe pain and irritation of the bladder mucosa. […] The foregoing solution, after filter sterilization, can be directly instilled into the urinary bladder. A typical instillation volume is 100 ml, although it is possible to instill somewhat larger or smaller volumes, as is understood in the art.

[3] = tested on: patients with MS (detrusor hyperreflexia); assay: separate study: RTX instillation in patients with MS; format: in vivo, human; parameters: LVA Lost volume after RTX / CAPA Capacity after RTX: unit not given here
[4] = tested on: vanilloid receptor-mediated release of tachykinins in the rat urinary bladder; conditions: rat urinary bladder; cited from earlier work
[5] = tested on: normal human volunteers and patients with unstable detrusor; conditions: 10^−8M (0.01 μM) RTX intravesicular, cited from earlier work
[6] = tested on: rat urinary bladders; conditions: anesthetized rats; repeated perfusions; cited from earlier work
[7] = tested on: rats; conditions: cited from earlier work
[8] = four MS patients, one month after treatment

## C=C(C)[C@]12C[C@@H](C)[C@@]34O[C@](Cc5ccccc5)(O[C@@H]1[C@@H]3C=C(COC(=O)Cc1ccc(O)c(OC)c1)C[C@]1(O)C(=O)C(C)=C[C@@H]41)O2 [RTX, resiniferatoxin]
[1]; even at a dose of 1.0 μM RTX
  side effects: No side effects, particularly no meaningful burning or irritation were observed
[1]; [8]
  Capacity: increased in all patients
  urine loss pressure: decreased in all four although minimally in two
[2]; absolute ethanol, stored in the dark, preferably refrigerated
  stability of stock solution: stably maintained
[2]; completely aqueous medium, therapeutic dose
  solubility in water: insufficiently soluble in water
[2]; ethanolic stock and dilutions in saline, 10% (v/v) ethanol, 4° C., shielded from light
  stability of solutions: stable under refrigeration (4° C.) shielded from light
[2]; normal saline, not greater than 20% (v/v) ethanol
  solubility after dilution of ethanolic solution into aqueous medium: RTX remains in solution
[3]; Patient 6, Dose 500 nM, one month after treatment, CAPB before RTX 200
  CAPA Capacity after RTX: 360
[3]; Patient 6, Dose 500 nM, one month after treatment, DB before RTX 2
  DA Drug after RTX: 01
[3]; Patient 6, Dose 500 nM, one month after treatment, LVB before RTX 60
  LVA Lost volume after RTX: 10
[3]; Patient 6, Dose 500 nM, one month after treatment, ULPB before RTX 96
  ULPA Urine loss pressure after RTX: 40
[3]; Patient 7 (stress incontinent), Dose 500 nM, one month after treatment, LVB 100
  LVA Lost volume after RTX: 80*
[3]; Patient 7, Dose 500 nM, one month after treatment, CAPB 180
  CAPA Capacity after RTX: 750
[3]; Patient 7, Dose 500 nM, one month after treatment, DB 2
  DA Drug after RTX: 1
[3]; Patient 7, Dose 500 nM, one month after treatment, ULPB 63
  ULPA Urine loss pressure after RTX: 36
[3]; Patient 9, Dose 1000 nM, one month after treatment, CAPB 100
  CAPA Capacity after RTX: 300
[3]; Patient 9, Dose 1000 nM, one month after treatment, DB 2
  DA Drug after RTX: 2
[3]; Patient 9, Dose 1000 nM, one month after treatment, LVB 180
  LVA Lost volume after RTX: 0
[3]; Patient 9, Dose 1000 nM, one month after treatment, ULPB 32
  ULPA Urine loss pressure after RTX: 30
[3]; Patient 10, Dose 1000 nM, one month after treatment, CAPB 280
  CAPA Capacity after RTX: 460
[3]; Patient 10, Dose 1000 nM, one month after treatment, DB 2
  DA Drug after RTX: 2
[3]; Patient 10, Dose 1000 nM, one month after treatment, LVB 180
  LVA Lost volume after RTX: 0
[3]; Patient 10, Dose 1000 nM, one month after treatment, ULPB 46
  ULPA Urine loss pressure after RTX: 44
[3]; bedridden MS patient, 100 ml of 1 μM solution, six weeks
  urge and leakage around indwelling catheter: no urge and no leakage
[3]; [8]
  Urinary loss: decreased after instillation of RTX in all four patients
[4]
  desensitization to repeated doses: Desensitization to repeated doses of RTX was observed
  potency relative to CAP: 1000 times
[5]; human subjects
  sensations upon administration: no micturition reflex or burning upon administration
[5]; patients having unstable detrusor
  volume required to elicit first desire to void: Three of five patients having unstable detrusor reported an increased volume
[6]
  desensitizing effect of bladder perfusion: desensitization was occurring
[7]
  pain upon intravesical administration: pain induced by intravesical administration of RTX
